Data from ChEMBL document CHEMBL1201862, “PubChem BioAssay data set” (2004).
Activity calls are given as the source filed them. Cut-off read from the data, not from the text of the source, for most assays here: actives have a measured EC50 and inactives only a lower limit.

Tests used:
[1] = target: T1, RNA-binding protein pos-1 (Caenorhabditis elegans, UniProt G5EF15); assay: inhibitors of POS-1/mex-3 RNA binding, dose response, biochemical, fluorescence polarization (AID 1964);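 note: purified POS-1 fused to maltose binding protein made in E. coli; potency of compounds blocking POS-1 binding to fluorescent RNA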
T1 sequence (G5EF15 whole entry): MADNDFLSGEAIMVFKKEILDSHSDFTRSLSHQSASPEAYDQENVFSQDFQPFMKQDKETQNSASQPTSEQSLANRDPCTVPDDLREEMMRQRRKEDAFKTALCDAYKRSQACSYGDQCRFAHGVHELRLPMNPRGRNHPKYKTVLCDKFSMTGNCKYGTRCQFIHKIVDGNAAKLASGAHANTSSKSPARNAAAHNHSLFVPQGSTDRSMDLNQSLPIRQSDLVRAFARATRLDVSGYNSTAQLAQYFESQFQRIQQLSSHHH

[2] = target: T2, Zinc finger protein mex-5 (Caenorhabditis elegans, UniProt Q9XUB2); assay: MEX-5/TCR-2 RNA interaction inhibitors, dose response, biochemical, C. elegans, fluorescence polarization (AID 1960)
T2 sequence (Q9XUB2 whole entry): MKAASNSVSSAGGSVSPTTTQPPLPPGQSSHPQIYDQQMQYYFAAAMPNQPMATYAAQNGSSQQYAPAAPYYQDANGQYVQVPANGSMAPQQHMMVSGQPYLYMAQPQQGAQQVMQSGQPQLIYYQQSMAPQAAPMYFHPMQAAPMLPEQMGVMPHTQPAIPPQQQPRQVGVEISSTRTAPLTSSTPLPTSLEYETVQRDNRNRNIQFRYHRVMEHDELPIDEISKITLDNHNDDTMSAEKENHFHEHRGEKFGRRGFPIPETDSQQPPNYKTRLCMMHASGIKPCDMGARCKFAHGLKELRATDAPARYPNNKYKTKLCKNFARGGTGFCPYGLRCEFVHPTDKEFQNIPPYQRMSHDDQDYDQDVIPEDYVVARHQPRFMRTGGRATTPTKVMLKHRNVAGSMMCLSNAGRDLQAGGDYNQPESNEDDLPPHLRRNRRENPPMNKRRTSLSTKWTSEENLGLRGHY

[3] = target: T3, Replicative DNA helicase DnaB (Mycobacterium tuberculosis, UniProt P9WMR3); assay: DnaB intein splicing inhibitors, dose response, biochemical, cell-free fluorescence (AID 449749); format: functional
T3 sequence (P9WMR3 whole entry): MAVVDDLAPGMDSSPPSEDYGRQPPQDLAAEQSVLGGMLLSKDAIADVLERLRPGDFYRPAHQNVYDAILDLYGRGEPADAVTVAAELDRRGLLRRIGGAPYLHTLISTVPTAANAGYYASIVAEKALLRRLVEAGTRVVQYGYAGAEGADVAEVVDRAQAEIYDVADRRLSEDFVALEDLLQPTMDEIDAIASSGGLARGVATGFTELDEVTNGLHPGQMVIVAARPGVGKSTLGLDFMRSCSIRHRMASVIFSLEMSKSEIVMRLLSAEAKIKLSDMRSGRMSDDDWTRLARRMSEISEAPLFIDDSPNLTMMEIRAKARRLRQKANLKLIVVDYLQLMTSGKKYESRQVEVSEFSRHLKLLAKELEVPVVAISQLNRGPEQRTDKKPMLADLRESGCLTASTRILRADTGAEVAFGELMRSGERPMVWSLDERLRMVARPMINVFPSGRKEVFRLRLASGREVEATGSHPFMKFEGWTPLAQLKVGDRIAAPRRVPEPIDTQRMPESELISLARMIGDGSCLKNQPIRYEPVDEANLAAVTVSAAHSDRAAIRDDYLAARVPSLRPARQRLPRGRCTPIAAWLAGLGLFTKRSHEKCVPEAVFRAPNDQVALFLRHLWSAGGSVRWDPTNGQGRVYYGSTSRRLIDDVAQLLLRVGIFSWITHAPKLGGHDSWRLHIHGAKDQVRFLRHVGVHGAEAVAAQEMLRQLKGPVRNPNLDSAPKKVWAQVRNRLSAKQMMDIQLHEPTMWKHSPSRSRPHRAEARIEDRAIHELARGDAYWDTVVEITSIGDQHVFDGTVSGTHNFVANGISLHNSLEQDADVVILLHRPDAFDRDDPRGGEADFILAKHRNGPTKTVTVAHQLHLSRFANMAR

[4] = target: T4, Protein RecA (Mycobacterium tuberculosis, UniProt P9WHJ3); assay: Fluorescence Cell-Free Homogeneous Dose Retest to Identify Inhibitors of RecA-Intein Splicing Activity. [Related pubchem assays (depositor defined):AID2097, AID2223, AID489010, AID492950]; format: functional
T4 sequence (P9WHJ3 whole entry): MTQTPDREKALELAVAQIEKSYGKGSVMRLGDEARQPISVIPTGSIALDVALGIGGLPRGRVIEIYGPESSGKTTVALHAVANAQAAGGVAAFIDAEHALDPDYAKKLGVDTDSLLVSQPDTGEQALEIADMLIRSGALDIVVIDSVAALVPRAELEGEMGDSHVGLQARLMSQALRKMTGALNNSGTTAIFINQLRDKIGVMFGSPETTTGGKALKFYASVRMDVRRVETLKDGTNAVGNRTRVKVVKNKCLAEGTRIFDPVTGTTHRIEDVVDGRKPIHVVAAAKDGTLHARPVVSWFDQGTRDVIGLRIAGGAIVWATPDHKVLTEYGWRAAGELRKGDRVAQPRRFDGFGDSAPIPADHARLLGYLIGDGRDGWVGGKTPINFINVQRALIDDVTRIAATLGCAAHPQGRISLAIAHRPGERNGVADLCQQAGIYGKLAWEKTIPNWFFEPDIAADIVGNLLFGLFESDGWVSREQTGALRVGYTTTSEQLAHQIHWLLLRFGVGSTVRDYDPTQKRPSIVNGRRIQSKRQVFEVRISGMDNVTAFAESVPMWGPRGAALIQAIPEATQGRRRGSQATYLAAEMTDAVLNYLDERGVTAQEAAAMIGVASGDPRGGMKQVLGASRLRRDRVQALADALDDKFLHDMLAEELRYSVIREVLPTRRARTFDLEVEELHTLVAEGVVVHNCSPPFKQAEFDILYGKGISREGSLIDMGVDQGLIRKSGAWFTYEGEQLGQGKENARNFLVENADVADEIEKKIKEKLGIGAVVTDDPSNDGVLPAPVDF

[5] = target: T5, Rac GTPase-activating protein 1 (Homo sapiens, UniProt Q9H0H5); assay: MgcRacGAP GTPase-activating activity inhibitors, confirmation, biochemical, ADP Hunter fluorescence, primary and confirmatory (AID 624330); format: functional
T5 sequence (Q9H0H5 whole entry): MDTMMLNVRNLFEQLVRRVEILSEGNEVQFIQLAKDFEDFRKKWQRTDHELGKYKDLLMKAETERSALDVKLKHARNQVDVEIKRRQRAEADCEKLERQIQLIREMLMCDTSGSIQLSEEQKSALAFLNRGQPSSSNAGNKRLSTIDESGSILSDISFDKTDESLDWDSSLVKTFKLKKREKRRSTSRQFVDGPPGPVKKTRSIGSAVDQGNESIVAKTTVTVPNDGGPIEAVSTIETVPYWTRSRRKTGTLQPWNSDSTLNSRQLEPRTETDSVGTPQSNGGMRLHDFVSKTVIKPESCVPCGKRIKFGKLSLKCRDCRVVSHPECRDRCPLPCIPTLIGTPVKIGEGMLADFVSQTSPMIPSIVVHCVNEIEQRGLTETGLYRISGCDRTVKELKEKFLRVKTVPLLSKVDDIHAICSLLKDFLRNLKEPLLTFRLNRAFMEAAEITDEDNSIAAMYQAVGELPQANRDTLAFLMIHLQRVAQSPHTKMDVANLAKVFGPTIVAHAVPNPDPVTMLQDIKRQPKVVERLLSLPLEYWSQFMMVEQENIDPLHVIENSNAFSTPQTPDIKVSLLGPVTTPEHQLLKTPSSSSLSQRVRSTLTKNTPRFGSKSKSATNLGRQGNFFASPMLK

[6] = Luminescence Cell-Based Dose Response HTS to Identify Activators of Luciferase Translation or Activity in H4 […] Cells. [Related pubchem assays: 1829 (Project Summary), 1814 (Primary HTS)]; format: functional
[7] = system: H4; assay: Luminescence Cell-Based Dose Response HTS to Identify Activators of 5'UTR Stem-Loop Driven Prion Protein mRNA Translation in H4 Neuroglioblastoma Cells. [Related pubchem assays: 1829 (Project Summary), 1814 (Primary HTS)]; format: functional; details: Homo sapiens
[8] = target: T6, Streptokinase A (Streptococcus pyogenes serotype M1, UniProt P10520); assay: S. pyogenes streptokinase expression inhibitors, potency, dose response, plasminogen activation absorbance, OD405 (AID 1914); format: functional, Streptococcus pyogenes M1 GAS;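 note: secreted streptokinase activity via plasminogen activation per viability signal from cell pellet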
T6 sequence (P10520 whole entry): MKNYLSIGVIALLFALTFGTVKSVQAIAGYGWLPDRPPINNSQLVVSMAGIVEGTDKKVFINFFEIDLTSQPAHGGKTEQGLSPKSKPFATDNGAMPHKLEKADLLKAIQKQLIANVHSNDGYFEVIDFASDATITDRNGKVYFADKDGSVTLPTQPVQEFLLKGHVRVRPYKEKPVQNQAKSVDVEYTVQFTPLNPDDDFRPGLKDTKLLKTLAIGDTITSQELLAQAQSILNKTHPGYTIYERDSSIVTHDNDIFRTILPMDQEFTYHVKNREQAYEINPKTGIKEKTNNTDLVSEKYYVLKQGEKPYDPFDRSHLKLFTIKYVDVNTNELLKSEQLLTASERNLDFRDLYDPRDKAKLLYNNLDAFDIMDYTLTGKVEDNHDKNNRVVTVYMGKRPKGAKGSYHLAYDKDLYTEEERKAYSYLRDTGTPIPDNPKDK

[9] = system: Streptococcus; assay: Group A Streptococcus viability loss, dose response, counter-screen for streptokinase expression inhibitor project, luminescence, BacTiterGlo (AID 1915); format: functional, organism-based;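 note: potency for reduction of bacterial viability or growth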
[10] = Luminescence Cell-Based Dose Retest to Confirm Inhibitors of Cancer Stem Cells. [Related pubchem assays (depositor defined):AID2717, AID2721]; format: functional; details: Homo sapiens

Row | SMILES | EC50 [1] | EC50 [2] | AC50 [3] | EC50 [4] | further results
1 | CC(C)(C)N=C(S)NCCc1ccccc1 | > 300 µM (inconclusive) | > 300 µM (not active) |  |  | 
2 | CC1=NN(Cc2ccccc2)C(=O)C1 |  |  | 5.61 µM (active) | 1.88 µM (active) | 
3 | N#CC(C#N)=Cc1ccc(NC(=O)c2ccc(Br)cc2)cc1 | > 300 µM (not active) | > 300 µM (not active) |  |  | 
4 | N#C/C(=C/c1ccc2c(c1)OCO2)C(=O)Nc1ccc(O)cc1 |  |  | 19 µM (active) | 3.64 µM (active) | IC50 [5]: 55.4 µM (active)
5 | CC(C)C/C=C1\CCc2c([nH]c3ccccc23)C1=O |  |  |  |  | EC50 [6]: 27.8 µM (active); EC50 [7]: 45.4 µM (active)
6 | O=C(Nc1ccc(F)cc1)c1nc2c(nnn2Cc2cccc3ccccc23)c(=O)[nH]1 |  |  |  |  | EC50 [8]: > 150 µM (not active)
7 | Cc1ccc(-c2ccc(CCC(=O)O)n2-c2cccc(C(=O)O)c2)cc1 | > 300 µM (not active) | > 300 µM (not active) |  |  | 
8 | CCc1n[nH]c2c1C(c1cccnc1)C(C#N)=C(N)O2 (stereo not drawn) |  |  | 24.4 µM (inconclusive) | 11.5 µM (active) | 
9 | CC1(C)CC(=O)C2=C(C1)OC(N)=C(C#N)[C@@]21C(=O)N(CC(N)=O)c2ccccc21 | > 300 µM (not active) | > 300 µM (not active) |  |  | 
10 | Cc1ccc(C(C)C)cc1OCC(=O)Nc1ccccc1N1CCCC1 |  |  |  |  | EC50 [8]: 14.1 µM (active); EC50 [9]: > 150 µM (not active)
11 | Cc1ccc(Nc2cc(C)nc3c(C)ccc([N+](=O)[O-])c23)cc1 |  |  | > 120 µM (inactive) | 2.34 µM (active) | 
12 | Cc1cc(C)cc(N2C(=O)/C(=C/Nc3ccc(N4CCOCC4)cc3)C(=O)NC2=S)c1 | 7.92 µM (active) | 5.42 µM (inconclusive) |  |  | 
13 | CCCCCc1cc(=O)oc2c(C(CCN3CCCC(C)C3)c3ccc4c(c3)OCO4)c(OC)cc(OC)c12 (stereo not drawn) |  |  | 5.31 µM (active) | 11.6 µM (active) | AC50 [10]: 6.14 µM (active)
14 | CS(=O)(=O)c1ccc(C(=O)OCc2nnc(-c3ccc(Cl)cc3)o2)cc1[N+](=O)[O-] |  |  | 2.2 µM (active) | 1.42 µM (active) | 
15 | Cc1ccc(C(=O)Nc2nc3ccccc3n2CCN2CCCC2)cc1 |  |  |  |  | EC50 [7]: 10.9 µM (active)
16 | CC1(OC(=O)C2CCCC2)C(=O)C=C2C=C(c3ccsc3)OC=C2C1=O (stereo not drawn) | 47.8 µM (active) | 37.1 µM (active) |  |  | 
17 | O=C1OCc2cc(-n3cccc3)ccc21 | > 300 µM (not active) | > 300 µM (not active) |  |  | 
18 | CCOC(=O)C1Nc2ccc(OC(F)(F)F)cc2C2C=CCC12 (stereo not drawn) | > 300 µM (not active) | > 300 µM (not active) |  |  | 
19 | COc1ccc(C(=O)/C=C/c2ccc(N3CCCCC3)c([N+](=O)[O-])c2)c(OC)c1 | > 300 µM (not active) | > 300 µM (not active) |  |  | AC50 [10]: 4.31 µM (active)
20 | Cc1cccc(NC(=O)/C(C#N)=C\c2cc(C)n(-c3ccc(C(=O)O)cc3)c2C)c1 | 84 µM (active) | > 300 µM (not active) |  |  | 
21 | CCCc1n[nH]c2c1C(c1ccc(OC)c(Cn3nnc4ccccc43)c1)C(C#N)=C(N)O2 (stereo not drawn) |  |  | 19.7 µM (active) | 0.283 µM (active) | 
